From ChEMBL document CHEMBL5625159, “Challenges for the development of mutant isocitrate dehydrogenases 1 inhibitors to treat glioma” (Eur J Med Chem, 2023)

Assays:
[1] = molecular target: T1, Isocitrate dehydrogenase [NADP] cytoplasmic (Homo sapiens, UniProt O75874, R132H); experiment: Inhibition of IDH1 R132H mutant (unknown origin) expressed in HEK293T cells assessed as inhibition of 2-HG generation measured after 48 hrs by LC-MS/MS analysis; type: cell-based
[2] = molecular target: T2, Isocitrate dehydrogenase [NADP] cytoplasmic (Homo sapiens, UniProt O75874, R132C); experiment: Inhibition of IDH1 R132C mutant (unknown origin) expressed in HEK293T cells assessed as inhibition of 2-HG generation measured after 48 hrs by LC-MS/MS analysis; type: cell-based
T2 sequence (O75874 2-414 R132C limits assumed): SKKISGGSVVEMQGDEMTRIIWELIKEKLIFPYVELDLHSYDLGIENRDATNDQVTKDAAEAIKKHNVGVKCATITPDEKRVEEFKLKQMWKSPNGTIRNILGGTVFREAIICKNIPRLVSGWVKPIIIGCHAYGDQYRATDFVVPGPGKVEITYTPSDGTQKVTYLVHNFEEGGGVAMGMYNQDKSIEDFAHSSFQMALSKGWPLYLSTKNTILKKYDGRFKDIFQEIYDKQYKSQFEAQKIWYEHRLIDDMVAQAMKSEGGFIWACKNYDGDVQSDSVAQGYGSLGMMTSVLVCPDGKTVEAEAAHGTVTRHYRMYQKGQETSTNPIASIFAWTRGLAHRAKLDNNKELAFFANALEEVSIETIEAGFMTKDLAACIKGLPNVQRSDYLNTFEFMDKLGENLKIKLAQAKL

[3] = molecular target: T1, Isocitrate dehydrogenase [NADP] cytoplasmic; experiment: Inhibition of N-terminal 6xHis-tagged IDH1 R132H mutant (unknown origin) expressed in Escherichia coli BL21 cells
[4] = molecular target: T1, Isocitrate dehydrogenase [NADP] cytoplasmic; experiment: Inhibition of C-terminal Hexahistidine-tagged human recombinant IDH1 R132H mutant expressed in Escherichia coli BL21 (DE3) cells assessed as NADPH consumption in presence of alpha KG incubated for 1 hr by MST assay
[5] = molecular target: T2, Isocitrate dehydrogenase [NADP] cytoplasmic; experiment: Inhibition of C-terminal Hexahistidine-tagged human recombinant IDH1 R132C mutant expressed in Escherichia coli BL21 (DE3) cells assessed as NADPH consumption in presence of alpha KG incubated for 1 hr by MST assay
[6] = molecular target: T3, Isocitrate dehydrogenase [NADP] cytoplasmic (Homo sapiens, UniProt O75874); experiment: Inhibition of wild type IDH1 (unknown origin)
T3 sequence (O75874 whole entry): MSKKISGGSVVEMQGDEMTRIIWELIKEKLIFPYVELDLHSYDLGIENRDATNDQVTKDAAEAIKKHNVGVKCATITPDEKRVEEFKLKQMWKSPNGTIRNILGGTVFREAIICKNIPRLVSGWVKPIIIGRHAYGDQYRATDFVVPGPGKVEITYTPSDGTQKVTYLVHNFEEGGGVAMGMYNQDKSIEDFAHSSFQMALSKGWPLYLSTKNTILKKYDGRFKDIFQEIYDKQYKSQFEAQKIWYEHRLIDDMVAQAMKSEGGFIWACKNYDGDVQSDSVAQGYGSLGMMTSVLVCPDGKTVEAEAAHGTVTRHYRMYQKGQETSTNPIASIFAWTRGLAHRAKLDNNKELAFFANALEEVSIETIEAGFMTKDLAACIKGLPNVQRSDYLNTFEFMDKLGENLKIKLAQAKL

[7] = molecular target: T1, Isocitrate dehydrogenase [NADP] cytoplasmic; experiment: Binding affinity to human recombinant IDH1 R132H mutant expressed in Escherichia coli BL21 (DE3) cells assessed as inhibition constant
[8] = molecular target: T3, Isocitrate dehydrogenase [NADP] cytoplasmic; experiment: Inhibition of N-terminal His-tagged wild type IDH1 (unknown origin)
[9] = molecular target: T1, Isocitrate dehydrogenase [NADP] cytoplasmic; experiment: Inhibition of wildtype human recombinant IDH1 R132H mutant heterodimer in presence of alpha-ketoglutarate and NADPH by fluorescence based biochemical assay
[10] = molecular target: T2, Isocitrate dehydrogenase [NADP] cytoplasmic; experiment: Inhibition of human N-terminal 6His-tagged IDH1 R132C mutant expressed in Escherichia coli Rosetta2 (DE3) in presence of alpha-ketoglutarate and NADPH by fluorescence based biochemical assay
[11] = molecular target: T1, Isocitrate dehydrogenase [NADP] cytoplasmic; experiment: Inhibition of human recombinant IDH1 R132H mutant expressed in Escherichia coli BL21 (DE3) cells in presence of alpha-ketoglutarate and NADPH by fluorescence based biochemical assay

T1 sequence (O75874 2-414 R132H limits assumed): as the sequence (O75874 2-414 R132C limits assumed) above, with C131H counted along it

COC(=O)C1CCC2=C(C1=O)C(c1c[nH]c3ccccc13)Nc1ccccc1N2 (stereo unspecified)
IC50 [1]: 55.5 µM
IC50 [2]: 65.4 µM

CC(C)(O)CNc1nc(Nc2ccnc(C(F)(F)F)c2)nc(-c2cccc(C(F)(F)F)n2)n1 [ENASIDENIB]
IC50 [3]: 0.677 µM

CCN(CC)CCOc1ccc(/C(=C(\Cl)c2ccccc2)c2ccccc2)cc1 [ZUCLOMIPHENE]
IC50 [4]: 50.2 µM
IC50 [5]: 42.3 µM

C=CC(C)(C)c1cc(/C=C/C(=O)c2ccc(O)cc2)c(OC)cc1O [LICOAGROCHACONE A]
IC50 [6]: > 100 µM
Ki [7]: 76.9 µM

COc1c(C)cc(NC(=O)c2nn(Cc3ccc(F)cc3)c3c2CN(C(=O)c2ccc[nH]2)C[C@@H]3C(N)=O)cc1C
IC50 [8]: 0.467 µM
IC50 [9]: 0.0166 µM
IC50 [10]: 0.0088 µM
IC50 [11]: 0.0152 µM
